Source: PMC5688156, “The natural product carolacton inhibits folate-dependent C1 metabolism by targeting FolD/MTHFD” (Nature Communications, 2017)
In brackets after ≈: the same amount, converted by molar mass. Several values for one entry are separate records, joined by “and”; a condition that tells them apart may be missing. Equal entries are not always repeated. Where two headings read alike, the source gives them in different places.

What was measured:
hsMTHFD2 = biological target: T1, hsMTHFD2 (Homo sapiens, UniProt P13995); experiment: hsMTHFD2 dehydrogenase (DH) enzyme assay; assay type: biochemical
T1 construct: His-tag (vector pHis-TEV) (cleaved yes); made in house; host or cells: E. coli BL21 (DE3)
T1 sequence (P13995 36-350): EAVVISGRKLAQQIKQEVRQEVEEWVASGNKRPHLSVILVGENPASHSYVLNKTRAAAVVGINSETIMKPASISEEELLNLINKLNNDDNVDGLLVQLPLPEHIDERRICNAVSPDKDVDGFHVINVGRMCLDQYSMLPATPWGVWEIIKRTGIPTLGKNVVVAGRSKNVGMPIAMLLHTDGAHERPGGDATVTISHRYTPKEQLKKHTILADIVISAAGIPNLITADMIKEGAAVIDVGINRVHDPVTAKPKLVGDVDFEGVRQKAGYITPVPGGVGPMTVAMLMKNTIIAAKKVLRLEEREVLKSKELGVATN
Experimental: (§1) (6R,S)-5,10-Methylene-5,6,7,8-tetrahydrofolic acid ((6R,S)-5,10-CH2-THF) calcium salt and (6R,S)-5,10-Methenyl-5,6,7,8-tetrahydrofolic acid ((6R,S)-5,10-CH=THF) chloride were purchased from Schircks Laboratories (Bauma, Switzerland) and used as substrates for FolD dehydrogenase and cyclohydrolase enzyme assays, respectively. Only the R-isomer, which accounts for 50% of (6R,S)-5,10-CH2-THF and (6R,S)-5,10-CH=THF, respectively, is used by the enzyme. (6R,S)-5,10-CH2-THF was dissolved in N2-spargeled basic buffer (50 mM Tris-HCl (pH 8.0), 100 mM β-mercaptoethanol) as described by Varshney et al.[25]. (6R,S)-5,10-CH=THF was dissolved in DMSO as a 100 mM stock solution.
(§2) Because FolD is a bifunctional enzyme, dehydrogenase and cyclohydrolase activities were determined for FolD enzyme kinetics, respectively. The dehydrogenase activity of FolD was assayed for its substrate 5,10-CH2-THF and cofactor NADP^+ (in the case of MTHFD2, NAD^+ was used as the cofactor) based on monitoring the formation of 5,10-CH=THF, while the cyclohydrolase activity of FolD was determined for its substrate 5,10-CH=THF by monitoring the hydrolysis of […]. The enzyme kinetics for the dehydrogenase activity of all FolDs except hsMTHFD1_DC were determined at 30 °C in 50 mM Tris-HCl (pH 7.5), 30 mM β-mercaptoethanol. The hsMTHFD1_DC dehydrogenase activity was measured in 25 mM MOPS (pH 7.3), 30 mM β-mercaptoethanol at 30 °C. To measure the enzyme kinetic constants for 5,10-CH2-THF, for example in the case of ecFolD, the NADP concentration was fixed at 1 mM and the concentration of 5,10-CH2-THF varied from 5 to 1500 μM (R-isomer). Similarly, to measure the kinetic constants of ecFolD for NADP^+, the concentration of 5,10-CH2-THF (R-isomer) was fixed at 1 mM and the concentration of NADP^+ varied from 10 to 1500 μM. For different FolDs, the varied concentration range of substrates could be different. […] To monitor the formation of 5,10-CH=THF, the absorbance of the reaction mixture was monitored at 350 nm in micro UV cuvettes (BRAND, Essex, Connecticut, USA). The concentration of 5,10-CH=THF produced in the reaction was determined using an extinction co-efficient of 0.0249 μM^−1 cm^−1. […] The consumption of 5,10-CH=THF was measured by recording the absorbance of the reactions at 355 nm using the TECAN Infinite 200 PRO equipped with a monochromator. […] The inhibition constants (K i) of carolacton on FolD were determined by measuring the apparent K m when adding certain amounts of carolacton to the enzyme reactions. […] To compare the inhibition effects of carolacton between the different FolDs, the half maximal inhibitory concentration (IC50) of carolacton on the same amount of enzyme was determined for FolDs involved in this study. […]

ecFolD = biological target: T2, ecFolD (Escherichia coli, UniProt P24186); experiment: ecFolD dehydrogenase (DH) enzyme assay; assay type: biochemical, E. coli; details: for Ki: carolacton inhibition on DH activity, from apparent KM
T2 construct: His-tag (TEV-cleavable, vector pHis-TEV); made in house; host or cells: E. coli BL21 (DE3)
Experimental: as §1, §2

E. coli (TolC-deficient) = experiment: MIC determination on E. coli (TolC-deficient); assay type: cell-based, Escherichia coli; details: 16 h
Experimental: First, the minimum inhibitory concentration (MIC) of carolacton on the E. coliΔtolC strain was determined. We started to develop the resistant mutants on CASO agar (peptone from casein 15 g/L, peptone from soybean 5 g/L, NaCl 5 g/L and agar 15 g/L; pH 7.3) plates supplemented with 4× the MIC concentration of carolacton (0.5 μg/mL) as selection pressure. Different numbers of E. coliΔtolC cells from 1 × 10^7 to 10^9 were spread on caso agar plates with carolacton. After 7 days, E. coliΔtolC colonies, which were resistant to carolacton, started to form on the agar plates. The mutants picked were inoculated in liquid MHB medium (beef extract 2 g/L, peptone from casein 17.5 g/L and corn starch 1.5 g/L, pH 7.4) supplemented with carolacton.
The determination of MICs was performed as described elsewhere. In brief, E. coli strains were treated with carolacton in serial dilution in either the presence or absence of sub-inhibitory concentrations of polymyxin B nonapeptide (PMBN; 3 µg/mL) and/or phenylalanine–arginine β-napthylamide (PAβN; 20 µg/mL) for 16 h at 37 °C in Mueller–Hinton broth. The MICs were assessed by visual inspection of the plates.

In the case of `CO[C@H](CC(=O)O)[C@@H](C)C(=O)[C@H](C)/C=C(\C)[C@H]1OC(=O)[C@H](O)[C@H](O)/C=C/[C@H](C)CCC[C@@H]1C` [carolacton], the IC50 (hsMTHFD2; 10 nM enzyme, read-out: IC50, carolacton inhibition on DH activity) is reported as 6.5 nM, the IC80 (hsMTHFD2; 10 nM enzyme, read-out: IC80, carolacton inhibition on DH activity) is reported as 31.7 nM and the Ki (hsMTHFD2; cofactor is NAD+ in the case of hsMTHFD2, read-out: Ki (NADP+), carolacton inhibition on DH activity) is reported as 16.7 nM. For the same molecule, the Ki (hsMTHFD2; vs 5,10-CH2-THF, read-out: Ki (5,10-CH2-THF), carolacton inhibition on DH activity) was 6.42 nM, the IC50 (ecFolD) was 15.5 nM and the Ki (ecFolD; Ki (5,10-CH2-THF), competitive vs substrate 5,10-CH2-THF) was 21 nM and 21.3 nM. The Ki (ecFolD; Ki (NADP+), competitive vs cofactor NADP+) was 11 nM and 10.9 nM, the IC80 (ecFolD; read-out: IC80, carolacton inhibition on DH activity) was 52.2 nM and the MIC (E. coli (TolC-deficient); Escherichia coli) was 0.13 µg/mL (≈ 0.277 µM). For the same molecule, the MIC (E. coli (TolC-deficient); no additive, cation-adjusted Mueller–Hinton broth, 37 °C) was 0.125 µg/mL (≈ 0.267 µM).
